{"source": "patent US10501454B2", "about": "“Monocyclic β-lactam-siderophore conjugate, and preparation method and use thereof” (Shanghai Institute of Materia Medica, Chinese Academy of …, priority 2016, dated 2019)", "key": {"[1]": {"test_system": "Escherichia coli ATCC 35218", "assay": "MIC, broth microdilution, normal MH medium", "assay_type": "cell-based", "settings": "quality control strain", "description": "(§1) Strain for quality control: Escherichia coli ATCC35218, purchased from National Center of Clinical Laboratory.\n(§2) Medium: MH liquid medium (OXOID).\n(§3) Culture condition: cells were incubated at 35-37° C. for 16-18 h.\n(§4) The broth microdilution method recommended by Clinical and Laboratory Standards Institute (CLSI), Performance Standards for Antimicrobial Susceptibility Testing; Twenty-Third Informational Supplement, M02-All, M07-A9 and M11-A8, 2013 was used to determine the MIC value of each test sample against each test strain in the normal MH medium and iron-deficient MH medium.\n(§5) After diluting each sample to different concentrations with normal MH medium, 100 μl of each test sample solution at different concentrations was separately aspirated onto a 96-well sterile polystyrene plate. Drug solutions were added to the 1st to 10th well with the final concentrations of 16, 8, 4, 2, 1, 0.5, 0.25, 0.125, 0.06, and 0.03 mg/L in each well, respectively. The 11th well, as a blank control, was not added with drugs and bacteria. The 12th well, as a bacterial growth control, was added with bacteria but no drug.\n(§6) The test bacterial liquid was adjusted to a bacterial suspension of 0.5 Mcfarland standard with physiological saline, and diluted with MH broth at 1:100, and then added to the drug solution so that a final concentration of the bacterial liquid was approximately 10^4 CFU/ml; 100 μl of the bacterial liquid was further added to each of the above wells (the total volume in each well is 200 μl), which was sealed and placed in a 35-37° C. incubator for 18-20 h for testing the result. The OD600 value was measured by a microplate reader, Minimal Inhibitory Concentration (MIC) of a drug is the lowest concentration of the drug which prevents growth of bacteria in the wells. 1.2.2 MIC in iron-deficient MH medium"}, "[2]": {"test_system": "Acinetobacter baumannii (4 strains)", "assay": "MIC, broth microdilution, normal MH medium", "assay_type": "cell-based", "settings": "normal MH medium; multidrug-resistant clinical isolates (integron I, OXA23)", "description": "(§7) Supplier of the strains: all of the above strains were provided by Sichuan Primed Shines Bio-tech Co., Ltd. A single colony was isolated by streaking on agar plates for each strain prior to the experiment, and the cells freshly cultured at 37° C. overnight were appropriately diluted for the experiment.\nas §2, §3, §4, §5, §6"}, "[3]": {"test_system": "Escherichia coli (4 strains)", "assay": "MIC, broth microdilution, normal MH medium", "assay_type": "cell-based", "settings": "clinical isolates (ESBLs)", "description": "as §7, §2, §3, §4, §5, §6"}, "[4]": {"test_system": "Pseudomonas aeruginosa (4 strains)", "assay": "MIC, broth microdilution, normal MH medium", "assay_type": "cell-based", "settings": "multidrug-resistant clinical isolates (integrator I, IMP4)", "description": "as §7, §2, §3, §4, §5, §6"}, "[5]": {"test_system": "Klebsiella pneumoniae (4 strains)", "assay": "MIC, broth microdilution, normal MH medium", "assay_type": "cell-based", "settings": "multi-drug resistant clinical isolates (KPC2)", "description": "as §7, §2, §3, §4, §5\nThe OD600 value was measured by a microplate reader, Minimal Inhibitory Concentration (MIC) of a drug is the lowest concentration of the drug which prevents growth of bacteria in the wells. 1.2.2 MIC in iron-deficient MH medium"}, "[6]": {"test_system": "Escherichia coli ATCC 35218", "assay": "MIC, broth microdilution, iron-deficient MH medium", "assay_type": "cell-based", "settings": "iron-deficient MH medium (16 mg/L 2,2'-bipyridine); quality control strain", "description": "as §1, §2, §3, §4\n(§8) BPL was added to the normal MH medium to obtain a final concentration of 16 mg/L; According to the method in Section 1.2.1, 100 μl of each test sample solution at different concentrations was aspirated to the 1st to 10th well in a 96-well sterile polystyrene plate to obtain the final drug concentrations of 16, 8, 4, 2, 1, 0.5, 0.25, 0.125, 0.06, and 0.03 mg/L, respectively. Then, 100 μl of the test bacterial liquid was added to each well (200 μl per well), and the final concentration of the bacterial liquid was approximately 10^4 CFU/ml. After sealing, it was placed in a 35-37° C. incubator for 18-20 hours for testing the result. The OD600 value was measured by a microplate reader, Minimal Inhibitory Concentration (MIC) of a drug is the lowest concentration of the drug which prevents growth of bacteria in the wells."}, "[7]": {"test_system": "Acinetobacter baumannii (4 strains)", "assay": "MIC, broth microdilution, iron-deficient MH medium", "assay_type": "cell-based", "settings": "iron-deficient MH medium (16 mg/L 2,2'-bipyridine); multidrug-resistant clinical isolates (integron I, OXA23)", "description": "as §7, §2, §3, §4, §8"}, "[8]": {"test_system": "Escherichia coli (4 strains)", "assay": "MIC, broth microdilution, iron-deficient MH medium", "assay_type": "cell-based", "settings": "iron-deficient MH medium (16 mg/L 2,2'-bipyridine); clinical isolates (ESBLs)", "description": "as §7, §2, §3, §4, §8"}, "[9]": {"test_system": "Klebsiella pneumoniae (4 strains)", "assay": "MIC, broth microdilution, iron-deficient MH medium", "assay_type": "cell-based", "settings": "iron-deficient MH medium (16 mg/L 2,2'-bipyridine); multi-drug resistant clinical isolates (KPC2)", "description": "as §7, §2, §3, §4, §8"}, "[10]": {"test_system": "Pseudomonas aeruginosa (4 strains)", "assay": "MIC, broth microdilution, iron-deficient MH medium", "assay_type": "cell-based", "settings": "iron-deficient MH medium (16 mg/L 2,2'-bipyridine); multidrug-resistant clinical isolates (integrator I, IMP4)", "description": "as §7, §2, §3, §4, §8"}, "[11]": {"test_system": "Escherichia coli ECO-14-4 (ESBLs)", "assay": "In vivo efficacy in mice systemically infected with Escherichia coli ECO-14-4 (ESBLs)", "settings": "Kunming mice, intraperitoneal infection, drug s.c. 0.5 h and 4 h after infection, deaths over 7 days, Bliss method", "description": "3.1 Test strains: Clinically isolated pathogenic Escherichia coli ECO-14-4 (ESBLs), supplied by Sichuan Primed Shines Bio-tech Co., Ltd.\n3.2 Test animals: Kunming mice, age: 4 to 5 weeks, weight: 18 to 22 g, half male, half female, SPF grade.\n3.3 Test methods: Mice were randomly divided into several groups, 5 mice for each group, half male and half female, and 5 doses for each test drug: 1.25, 2.5, 5, 10 and 20 mg/kg. The mice were intraperitoneally injected with 0.5 mL of […] CFU/mL bacterial suspension for each mouse, and subcutaneously injected with the drug at the designed dose 0.5 h and 4 h after infection. The subcutaneous injection volume was 0.2 ml/20 g mouse weight; the number of deaths in mice was observed and recorded for 7 consecutive days. According to the number of deaths in mice, the half effective dose ED50 was calculated according to the Bliss method using the DAS 1.0 software, edited by Sun Ruiyuan et al."}}, "data": [{"smiles": "CC1(C)[C@H](NC(=O)/C(=N\\OCc2cc(=O)c(O)cn2O)c2csc(N)n2)C(=O)N1OS(=O)(=O)O", "note": "[BAL30072, reference compound]", "values": [{"measurement": "Antibacterial activity MIC, Escherichia coli ATCC 35218", "setting": "[1]", "result": 0.125, "unit": "µg/mL"}, {"measurement": "Antibacterial activity MIC, Acinetobacter baumarmii (4 strains)", "setting": "[2]", "result": "2 to 4", "unit": "µg/mL"}, {"measurement": "Antibacterial activity MIC, Escherichia coli (4 strains)", "setting": "[3]", "result": 1, "unit": "µg/mL"}, {"measurement": "Antibacterial activity MIC, Pseudomonas aeruginosa (4 strains)", "setting": "[4]", "result": 2, "unit": "µg/mL"}, {"measurement": "Antibacterial activity MIC, Klebsiella pneumoniae (4 strains)", "setting": "[5]", "result": "≥64", "unit": "µg/mL"}, {"measurement": "Antibacterial activity MIC, Escherichia coli ATCC 35218", "setting": "[6]", "result": 0.06, "unit": "µg/mL"}, {"measurement": "Antibacterial activity MIC, Acinetobacter baumannii (4 strains)", "setting": "[7]", "result": "1 to 2", "unit": "µg/mL"}, {"measurement": "Antibacterial activity MIC, Escherichia coli (4 strains)", "setting": "[8]", "result": "0.25 to 1", "unit": "µg/mL"}, {"measurement": "Antibacterial activity MIC, Klebsiella pneumoniae (4 strains)", "setting": "[9]", "result": "≥64", "unit": "µg/mL"}, {"measurement": "Antibacterial activity MIC, Pseudomonas aeruginosa (4 strains)", "setting": "[10]", "result": "1 to 2", "unit": "µg/mL"}, {"measurement": "ED50 Subcutaneous injection", "setting": "[11]", "result": 4.19, "unit": "mg/kg"}]}]}
